Assay results from US20210130346A1, “Bromodomain Inhibitors” (AbbVie Inc., priority 2017, published 2021).

biological target: BRD4 (BDI_K57-E168) (Homo sapiens, UniProt O60885); experiment: TR-FRET bromodomain binding assay, BRD4 first bromodomain (BDI); details: mean Ki; 12 nM His tagged BRD4 (BDI_K57-E168), 100 nM Alexa647 probe; Ki calculated from IC50, probe Kd and probe concentration
Method: A time-resolved fluorescence resonance energy transfer (TR-FRET) assay was used to determine the affinities of compounds of the Examples listed in Table 1 for each bromodomain of BRD4. […] An Alexa647-labeled BET-inhibitor was used as the fluorescent probe in the assay.
Compound dilution series were prepared in DMSO via an approximately 3-fold serial dilution. Compound dilutions were added directly into white, low-volume assay plates (Perkin Elmer Proxiplate 384 Plus# 6008280) using a Labcyte Echo in conjunction with Labcyte Access and Thermo Multidrop CombinL robotics. Compounds were then suspended in eight microliters (μL) of assay buffer (20 mM Sodium Phosphate, pH 6.0, 50 mM NaCl, 1 mM Ethylenediaminetetraacetic acid disodium salt dihydrate, 0.01% Triton X-100, 1 mM DL-Dithiothreitol) containing His-tagged bromodomain, Europium-conjugated anti-His antibody (Invitrogen PV5596) and Alexa-647-conjugated probe.
After a one-hour equilibration at room temperature, TR-FRET ratios were determined using an Envision multilabel plate reader (Ex 340, Em 495/520).
TR-FRET data were normalized to the means of 24 no-compound controls (“high”) and 8 controls containing 1 μM un-labeled probe (“low”). Percent inhibition was plotted as a function of compound concentration and the data were fit with the 4 parameter logistic equation to obtain IC50s. Inhibition constants (Ki) were calculated from the IC50s, probe Kd and probe concentration.

Structure (SMILES) | Ki [µM]
CCNC(=O)c1cc2c([C@@H]3C[C@@]34C(=O)N(C)c3ccccc34)cn(C)c(=O)c2[nH]1 (racemic) [Example 1, rac-N-ethyl-6-methyl-4-[(1R,2S)-1′-methyl-2′-oxo-1′,2′-dihydrospiro[cyclopropane-1,3′-indol]-2-yl]-7-oxo-6,7-dihydro-1H-pyrrolo[2,3-c]pyridine-2-carboxamide] | 6.08
CN1C(=O)[C@@]2(C[C@H]2c2cn(C)c(=O)c3[nH]c(C(=O)NC4CC4)cc23)c2ccccc21 (racemic) [Example 2, rac-N-cyclopropyl-6-methyl-4-[(1R,2S)-1′-methyl-2′-oxo-1′,2′-dihydrospiro[cyclopropane-1,3′-indol]-2-yl]-7-oxo-6,7-dihydro-1H-pyrrolo[2,3-c]pyridine-2-carboxamide] | 5.42
CN1C(=O)[C@@]2(C[C@H]2c2cn(C)c(=O)c3[nH]c(C(=O)NC4CC(F)(F)C4)cc23)c2ccccc21 (racemic) [Example 5, rac-N-(3,3-difluorocyclobutyl)-6-methyl-4-[(1R,2S)-1′-methyl-2′-oxo-1′,2′-dihydrospiro[cyclopropane-1,3′-indol]-2-yl]-7-oxo-6,7-dihydro-1H-pyrrolo[2,3-c]pyridine-2-carboxamide] | 5.45
CN1C(=O)[C@@]2(C[C@H]2c2cn(C)c(=O)c3[nH]c(C(=O)Nc4ccccc4)cc23)c2ccccc21 (racemic) [Example 8, rac-6-methyl-4-[(1R,2S)-1′-methyl-2′-oxo-1′,2′-dihydrospiro[cyclopropane-1,3′-indol]-2-yl]-7-oxo-N-phenyl-6,7-dihydro-1H-pyrrolo[2,3-c]pyridine-2-carboxamide] | > 13
COc1ccc(NC(=O)c2cc3c([C@@H]4C[C@@]45C(=O)N(C)c4ccccc45)cn(C)c(=O)c3[nH]2)cc1 (racemic) [Example 9, rac-N-(4-methoxyphenyl)-6-methyl-4-[(1R,2S)-1′-methyl-2′-oxo-1′,2′-dihydrospiro[cyclopropane-1,3′-indol]-2-yl]-7-oxo-6,7-dihydro-1H-pyrrolo[2,3-c]pyridine-2-carboxamide] | 4.68
CN1C(=O)[C@@]2(C[C@H]2c2cn(C)c(=O)c3[nH]c(C(=O)Nc4cccc(CO)c4)cc23)c2ccccc21 (racemic) [Example 10, rac-N-[3-(hydroxymethyl)phenyl]-6-methyl-4-[(1R,2S)-1′-methyl-2′-oxo-1′,2′-dihydrospiro[cyclopropane-1,3′-indol]-2-yl]-7-oxo-6,7-dihydro-1H-pyrrolo[2,3-c]pyridine-2-carboxamide] | 2.05
CN1C(=O)[C@@]2(C[C@H]2c2cn(C)c(=O)c3[nH]c(C(=O)NC4CC4)cc23)c2ccc(F)cc21 (racemic) [Example 11, rac-N-cyclopropyl-4-[(1R,2S)-6′-fluoro-1′-methyl-2′-oxo-1′,2′-dihydrospiro[cyclopropane-1,3′-indol]-2-yl]-6-methyl-7-oxo-6,7-dihydro-1H-pyrrolo[2,3-c]pyridine-2-carboxamide] | 7.38
CN1C(=O)[C@@]2(C[C@H]2c2cn(C)c(=O)c3[nH]c(C(=O)NC4CC4)cc23)c2ccc(Cl)cc21 (racemic) [Example 12, rac-4-[(1R,2S)-6′-chloro-1′-methyl-2′-oxo-1′,2′-dihydrospiro[cyclopropane-1,3′-indol]-2-yl]-N-cyclopropyl-6-methyl-7-oxo-6,7-dihydro-1H-pyrrolo[2,3-c]pyridine-2-carboxamide] | 4.53
Cc1ccc2c(c1)N(C)C(=O)[C@@]21C[C@H]1c1cn(C)c(=O)c2[nH]c(C(=O)NC3CC3)cc12 (racemic) [Example 13, rac-N-cyclopropyl-4-[(1R,2S)-1′,6′-dimethyl-2′-oxo-1′,2′-dihydrospiro[cyclopropane-1,3′-indol]-2-yl]-6-methyl-7-oxo-6,7-dihydro-1H-pyrrolo[2,3-c]pyridine-2-carboxamide] | 2.95
COc1ccc2c(c1)N(C)C(=O)[C@@]21C[C@H]1c1cn(C)c(=O)c2[nH]c(C(=O)NC3CC3)cc12 (racemic) [Example 14, rac-N-cyclopropyl-4-[(1R,2S)-6′-methoxy-1′-methyl-2′-oxo-1′,2′-dihydrospiro[cyclopropane-1,3′-indol]-2-yl]-6-methyl-7-oxo-6,7-dihydro-1H-pyrrolo[2,3-c]pyridine-2-carboxamide] | 4.8
CN1C(=O)[C@@]2(C[C@H]2c2cn(C)c(=O)c3[nH]c(C(=O)NC4CC4)cc23)c2ccc(OC(F)(F)F)cc21 (racemic) [Example 15, rac-N-cyclopropyl-6-methyl-4-[(1R,2S)-1′-methyl-2′-oxo-6′-(trifluoromethoxy)-1′,2′-dihydrospiro[cyclopropane-1,3′-indol]-2-yl]-7-oxo-6,7-dihydro-1H-pyrrolo[2,3-c]pyridine-2-carboxamide] | 3.63
CN1C(=O)[C@@]2(C[C@H]2c2cn(C)c(=O)c3[nH]c(C(=O)NC4CC4)cc23)c2cc(F)ccc21 (racemic) [Example 16, rac-N-cyclopropyl-4-[(1R,2S)-5′-fluoro-1′-methyl-2′-oxo-1′,2′-dihydrospiro[cyclopropane-1,3′-indol]-2-yl]-6-methyl-7-oxo-6,7-dihydro-1H-pyrrolo[2,3-c]pyridine-2-carboxamide] | 9.95
Cn1cc([C@@H]2C[C@@]23C(=O)Nc2ccccc23)c2cc(C(=O)NC3CC3)[nH]c2c1=O (racemic) [Example 19, rac-N-cyclopropyl-6-methyl-7-oxo-4-[(1R,2S)-2′-oxo-1′,2′-dihydrospiro[cyclopropane-1,3′-indol]-2-yl]-6,7-dihydro-1H-pyrrolo[2,3-c]pyridine-2-carboxamide] | > 13
CCN1C(=O)[C@@]2(C[C@H]2c2cn(C)c(=O)c3[nH]c(C(=O)NC4CC4)cc23)c2ccccc21 (racemic) [Example 22, rac-N-cyclopropyl-4-[(1R,2S)-1′-ethyl-2′-oxo-1′,2′-dihydrospiro[cyclopropane-1,3′-indol]-2-yl]-6-methyl-7-oxo-6,7-dihydro-1H-pyrrolo[2,3-c]pyridine-2-carboxamide] | 4
Cn1cc(C2CC23C(=O)N(CC(F)(F)F)c2ccccc23)c2cc(C(=O)NC3CC3)[nH]c2c1=O (racemic) [Example 23, rac-N-cyclopropyl-6-methyl-7-oxo-4-[(1R,2S)-2′-oxo-′-(2,2,2-trifluoroethyl)-1′,2′-dihydrospiro[cyclopropane-1,3′-indol]-2-yl]-6,7-dihydro-1H-pyrrolo[2,3-c]pyridine-2-carboxamide] | > 13
Cn1cc([C@@H]2C[C@@]23C(=O)N(C2CC2)c2ccccc23)c2cc(C(=O)NC3CC3)[nH]c2c1=O (racemic) [Example 26, rac-N-cyclopropyl-4-[(1R,2S)-1′-cyclopropyl-2′-oxo-1′,2′-dihydrospiro[cyclopropane-1,3′-indol]-2-yl]-6-methyl-7-oxo-6,7-dihydro-1H-pyrrolo[2,3-c]pyridine-2-carboxamide] | 9.22
COCCN1C(=O)[C@@]2(C[C@H]2c2cn(C)c(=O)c3[nH]c(C(=O)NC4CC4)cc23)c2ccccc21 (racemic) [Example 27, rac-N-cyclopropyl-4-[(1R,2S)-1′-(2-methoxyethyl)-2′-oxo-1′,2′-dihydrospiro[cyclopropane-1,3′-indol]-2-yl]-6-methyl-7-oxo-6,7-dihydro-1H-pyrrolo[2,3-c]pyridine-2-carboxamide] | > 13
Cn1cc([C@@H]2C[C@@]23C(=O)N(Cc2ccc(N)cc2)c2ccccc23)c2cc(C(=O)NC3CC3)[nH]c2c1=O (racemic) [Example 28, rac-4-{(1R,2S)-1′-[(4-aminophenyl)methyl]-2′oxo-1′,2′-dihydrospiro[cyclopropane-1,3′-indol]-2-yl}-N-cyclopropyl-6-methyl-7-oxo-6,7-dihydro-1H-pyrrolo [2,3-c]pyridine-2-carboxamide] | 7.43
CN1C(=O)[C@@]2(C[C@H]2c2cn(C)c(=O)c3[nH]c(C(=O)NC4CC4)cc23)c2cccc(Br)c21 (racemic) [Example 29, rac-4-[(1R,2S)-7′-bromo-1′-methyl-2′-oxo-1′,2′-dihydrospiro[cyclopropane-1,3′-indol]-2-yl]-N-cyclopropyl-6-methyl-7-oxo-6,7-dihydro-1H-pyrrolo[2,3-c]pyridine-2-carboxamide] | 4.84
CN1C(=O)[C@@]2(C[C@H]2c2cn(C)c(=O)c3[nH]ccc23)c2ccccc21 (racemic) [Example 30, rac-(1R,2S)-1′-methyl-2-(6-methyl-7-oxo-6,7-dihydro-1H-pyrrolo[2,3-c]pyridin-4-yl)spiro[cyclopropane-1,3′-indol]-2′(1H)-one] | 3.44
CN1C(=O)[C@@]2(C[C@H]2c2cn(C)c(=O)c3[nH]c(C4CC4)cc23)c2ccccc21 (racemic) [Example 31, rac-(1R,2S)-2-(2-cyclopropyl-6-methyl-7-oxo-6,7-dihydro-1H-pyrrolo[2,3-c]pyridin-4-yl)-1′-methylspiro[cyclopropane-1,3′-indol]-2′(1H)-one] | 0.811
CN1C(=O)[C@@]2(C[C@H]2c2cn(C)c(=O)c3[nH]c(C4CN(C(=O)OC(C)(C)C)C4)cc23)c2ccccc21 (racemic) [Example 32, rac-tert-butyl 3-{6-methyl-4-[(1R,2S)-1′-methyl-2′oxo-1′,2′-dihydrospiro[cyclopropane-1,3′-indol]-2-yl]-7-oxo-6,7-dihydro-1H-pyrrolo [2,3-c]pyridin-2-yl}azetidine-1-carboxylate] | 2.41
